# Laboratory results: ChEMBL document CHEMBL4680201, “Design, synthesis, and pharmacological evaluation of 4- or 6-phenyl-pyrimidine derivatives as novel and selective Janus kinase 3 inhibitors” (Eur J Med Chem, 2020)
# Active and inactive are the calls of the source. No cut-off for these calls is given here.
# How the values were obtained:
# Mus musculus = test: Immunosuppressive activity in Balb/c mouse model of oxazolone-induced delayed type hypersensitivity assessed as reduction in ear swelling at 30 mg/kg, po measured after 7 days; assay type: functional, organism-based; conditions: time 7.0 day
# [1] = Oral bioavailability in ICR mouse at 30 mg/kg administered as single dose via gavage by LC-MS/MS analysis; assay type: ADME, organism-based; conditions: in vivo
# RAW264.7 = test: Cytotoxicity against mouse RAW264.7 cells assessed as reduction in cell viability at 10 uM measured after 72 hrs by MTS assay; assay type: cell-based; conditions: raw264.7, 72 h
# [2] = target: T1, Tyrosine-protein kinase JAK3 (Homo sapiens) (UniProt P52333); test: Inhibition of recombinant human GST-tagged JAK3 catalytic domain (781 to 1124 residues) expressed in baculovirus expression system using Tyr06 peptide as substrate at 100 nM incubated for 1 hr by Z'lyte assay relative to control
# T1 sequence (whole entry): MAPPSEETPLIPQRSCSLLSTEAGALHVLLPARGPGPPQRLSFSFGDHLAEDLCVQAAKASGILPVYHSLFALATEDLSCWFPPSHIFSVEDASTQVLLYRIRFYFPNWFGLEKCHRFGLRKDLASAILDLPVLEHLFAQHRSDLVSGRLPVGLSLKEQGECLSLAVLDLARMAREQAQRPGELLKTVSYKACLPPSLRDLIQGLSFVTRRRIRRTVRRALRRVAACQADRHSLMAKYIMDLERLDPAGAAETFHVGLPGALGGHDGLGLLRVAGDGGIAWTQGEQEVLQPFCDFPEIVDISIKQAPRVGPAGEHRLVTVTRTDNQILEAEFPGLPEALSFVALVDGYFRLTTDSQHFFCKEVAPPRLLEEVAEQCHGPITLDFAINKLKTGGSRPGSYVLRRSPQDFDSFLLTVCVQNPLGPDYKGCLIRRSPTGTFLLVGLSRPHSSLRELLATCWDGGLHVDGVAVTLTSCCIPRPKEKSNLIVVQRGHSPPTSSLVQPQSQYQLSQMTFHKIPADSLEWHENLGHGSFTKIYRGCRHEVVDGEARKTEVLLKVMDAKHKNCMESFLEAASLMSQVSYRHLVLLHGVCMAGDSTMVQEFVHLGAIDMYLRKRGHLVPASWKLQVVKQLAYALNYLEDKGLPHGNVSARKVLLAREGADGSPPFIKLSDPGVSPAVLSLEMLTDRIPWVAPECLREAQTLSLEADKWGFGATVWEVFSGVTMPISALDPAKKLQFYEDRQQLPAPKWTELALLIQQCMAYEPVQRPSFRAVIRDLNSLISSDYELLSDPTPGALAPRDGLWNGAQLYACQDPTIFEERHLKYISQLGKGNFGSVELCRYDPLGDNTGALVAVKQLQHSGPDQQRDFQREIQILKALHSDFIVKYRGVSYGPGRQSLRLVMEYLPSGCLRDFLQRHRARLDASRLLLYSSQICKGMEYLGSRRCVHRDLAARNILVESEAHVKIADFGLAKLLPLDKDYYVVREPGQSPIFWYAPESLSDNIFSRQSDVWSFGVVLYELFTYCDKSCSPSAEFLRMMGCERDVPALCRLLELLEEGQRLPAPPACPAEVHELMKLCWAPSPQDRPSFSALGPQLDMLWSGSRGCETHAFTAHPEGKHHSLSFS
compound,measurement,setting,value
C=CC(=O)Nc1ccc(-c2ccnc(Nc3ccc(N4CCOCC4)cc3)n2)cc1,Activity,Mus musculus,Active
same,bioavailability,[1],23.8%
same,Activity,RAW264.7,Non-Toxic
same,inhibition,[2],100%
